Test results reported in patent US10201510B2, “Compositions and methods for treatment of neurological symptoms associated with alcohol-withdrawal and for convulsive seizure” (Oregon Health & Science University, priority 2005, dated 2019).

Assays:
[1] = target: T1, smooth muscle voltage-gated, L-type (Cav1.2 or α1C subunit) Ca^2+ channels (Mus musculus, UniProt Q01815); assay: KCl-induced contraction in isolated arteries; details: FIG. 5 / FIG. 6 (25 μM)
T1 construct: KCl-induced contraction in isolated arteries; from tissue; host or cells: mouse mesenteric arteries
T1 sequence (Q01815 whole entry): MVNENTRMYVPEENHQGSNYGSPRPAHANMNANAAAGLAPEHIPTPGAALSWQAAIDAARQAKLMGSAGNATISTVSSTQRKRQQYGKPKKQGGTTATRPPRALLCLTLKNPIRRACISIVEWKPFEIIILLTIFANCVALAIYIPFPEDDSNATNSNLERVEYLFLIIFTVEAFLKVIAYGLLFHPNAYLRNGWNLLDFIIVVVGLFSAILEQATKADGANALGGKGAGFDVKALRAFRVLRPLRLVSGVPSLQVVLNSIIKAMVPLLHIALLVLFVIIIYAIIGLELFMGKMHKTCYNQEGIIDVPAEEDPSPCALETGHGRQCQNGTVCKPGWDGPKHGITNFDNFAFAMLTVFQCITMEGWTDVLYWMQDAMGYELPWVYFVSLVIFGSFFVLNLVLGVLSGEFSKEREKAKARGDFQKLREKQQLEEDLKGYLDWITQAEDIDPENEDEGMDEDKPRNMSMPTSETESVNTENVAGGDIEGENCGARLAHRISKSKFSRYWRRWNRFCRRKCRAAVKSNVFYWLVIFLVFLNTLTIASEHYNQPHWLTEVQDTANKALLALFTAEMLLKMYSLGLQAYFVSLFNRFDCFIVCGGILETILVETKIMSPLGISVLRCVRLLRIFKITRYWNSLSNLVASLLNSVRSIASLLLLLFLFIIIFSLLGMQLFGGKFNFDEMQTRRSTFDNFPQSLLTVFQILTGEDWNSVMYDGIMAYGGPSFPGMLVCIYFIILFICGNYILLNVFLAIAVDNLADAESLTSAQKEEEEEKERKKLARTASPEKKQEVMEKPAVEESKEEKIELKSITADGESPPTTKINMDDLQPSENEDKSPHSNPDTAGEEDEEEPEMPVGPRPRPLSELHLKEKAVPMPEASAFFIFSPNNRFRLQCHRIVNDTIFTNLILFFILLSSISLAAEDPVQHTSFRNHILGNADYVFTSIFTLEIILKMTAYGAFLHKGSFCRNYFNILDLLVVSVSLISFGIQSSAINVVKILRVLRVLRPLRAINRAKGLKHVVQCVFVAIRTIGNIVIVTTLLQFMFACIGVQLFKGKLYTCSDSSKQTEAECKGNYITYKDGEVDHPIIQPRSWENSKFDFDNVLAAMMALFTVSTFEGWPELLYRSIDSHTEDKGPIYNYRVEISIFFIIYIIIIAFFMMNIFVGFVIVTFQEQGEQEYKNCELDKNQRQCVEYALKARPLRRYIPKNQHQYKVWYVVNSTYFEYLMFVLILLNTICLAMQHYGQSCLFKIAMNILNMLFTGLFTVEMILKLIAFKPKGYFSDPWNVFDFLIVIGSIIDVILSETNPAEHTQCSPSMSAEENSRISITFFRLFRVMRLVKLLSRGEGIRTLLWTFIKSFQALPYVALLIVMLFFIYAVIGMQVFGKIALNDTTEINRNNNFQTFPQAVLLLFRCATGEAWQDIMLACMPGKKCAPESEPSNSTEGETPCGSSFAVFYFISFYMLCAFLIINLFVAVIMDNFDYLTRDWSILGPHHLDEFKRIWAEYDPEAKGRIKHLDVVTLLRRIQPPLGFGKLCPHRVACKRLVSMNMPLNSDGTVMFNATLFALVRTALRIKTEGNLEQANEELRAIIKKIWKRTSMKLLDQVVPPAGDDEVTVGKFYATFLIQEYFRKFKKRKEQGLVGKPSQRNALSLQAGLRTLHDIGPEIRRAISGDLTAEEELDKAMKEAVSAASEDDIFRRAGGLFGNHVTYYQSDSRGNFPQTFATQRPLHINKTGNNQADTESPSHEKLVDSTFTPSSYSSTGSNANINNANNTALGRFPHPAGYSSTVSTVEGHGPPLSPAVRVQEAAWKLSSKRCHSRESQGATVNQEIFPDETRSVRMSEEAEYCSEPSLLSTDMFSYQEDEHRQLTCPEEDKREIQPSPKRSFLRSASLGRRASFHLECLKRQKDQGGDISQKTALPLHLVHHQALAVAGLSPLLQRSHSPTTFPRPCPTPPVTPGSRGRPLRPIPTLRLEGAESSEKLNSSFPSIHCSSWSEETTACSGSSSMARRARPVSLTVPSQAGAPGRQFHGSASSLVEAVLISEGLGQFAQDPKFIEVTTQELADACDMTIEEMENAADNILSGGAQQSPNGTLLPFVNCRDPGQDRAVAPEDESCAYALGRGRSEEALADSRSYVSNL
T1 sequence (P54285 whole entry partner): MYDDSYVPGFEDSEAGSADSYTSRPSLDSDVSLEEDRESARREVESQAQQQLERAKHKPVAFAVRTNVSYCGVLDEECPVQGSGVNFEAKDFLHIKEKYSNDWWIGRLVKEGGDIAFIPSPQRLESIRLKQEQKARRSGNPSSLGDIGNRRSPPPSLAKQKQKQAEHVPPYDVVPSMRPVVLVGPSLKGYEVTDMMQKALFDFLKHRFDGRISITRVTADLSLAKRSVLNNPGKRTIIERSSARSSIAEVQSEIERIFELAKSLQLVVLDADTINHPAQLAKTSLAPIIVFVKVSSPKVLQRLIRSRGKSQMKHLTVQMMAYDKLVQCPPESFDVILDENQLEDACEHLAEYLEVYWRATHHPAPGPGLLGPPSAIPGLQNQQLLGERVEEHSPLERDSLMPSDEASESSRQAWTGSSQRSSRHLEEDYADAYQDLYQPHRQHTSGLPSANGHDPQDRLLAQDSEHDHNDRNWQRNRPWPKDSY
T1 sequence (O08532 25-956 partner limits assumed): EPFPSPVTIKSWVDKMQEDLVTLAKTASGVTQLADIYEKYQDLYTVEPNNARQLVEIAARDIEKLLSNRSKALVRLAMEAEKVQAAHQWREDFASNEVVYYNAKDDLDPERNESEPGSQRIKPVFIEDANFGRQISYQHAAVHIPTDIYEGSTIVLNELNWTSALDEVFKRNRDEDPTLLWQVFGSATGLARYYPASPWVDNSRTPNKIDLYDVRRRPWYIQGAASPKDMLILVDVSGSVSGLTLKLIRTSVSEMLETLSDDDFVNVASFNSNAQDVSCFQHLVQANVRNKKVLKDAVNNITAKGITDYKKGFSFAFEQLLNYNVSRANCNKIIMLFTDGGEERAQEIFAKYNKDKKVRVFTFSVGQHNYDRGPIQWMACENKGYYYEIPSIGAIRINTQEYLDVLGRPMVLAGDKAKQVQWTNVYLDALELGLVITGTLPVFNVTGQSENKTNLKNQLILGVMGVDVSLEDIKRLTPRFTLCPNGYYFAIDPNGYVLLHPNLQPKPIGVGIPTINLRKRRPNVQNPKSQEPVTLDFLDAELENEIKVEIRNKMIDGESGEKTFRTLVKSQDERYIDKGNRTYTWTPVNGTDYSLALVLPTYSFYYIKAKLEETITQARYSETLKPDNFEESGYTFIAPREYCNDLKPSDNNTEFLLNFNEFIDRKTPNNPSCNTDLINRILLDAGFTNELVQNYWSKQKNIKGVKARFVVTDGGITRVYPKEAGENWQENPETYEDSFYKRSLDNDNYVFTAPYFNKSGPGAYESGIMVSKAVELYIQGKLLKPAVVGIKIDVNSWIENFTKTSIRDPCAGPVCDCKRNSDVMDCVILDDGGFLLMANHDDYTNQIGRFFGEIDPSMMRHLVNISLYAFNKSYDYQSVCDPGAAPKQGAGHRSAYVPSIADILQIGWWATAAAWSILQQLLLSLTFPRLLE
T1 sequence (O08532 957-1103 partner limits assumed): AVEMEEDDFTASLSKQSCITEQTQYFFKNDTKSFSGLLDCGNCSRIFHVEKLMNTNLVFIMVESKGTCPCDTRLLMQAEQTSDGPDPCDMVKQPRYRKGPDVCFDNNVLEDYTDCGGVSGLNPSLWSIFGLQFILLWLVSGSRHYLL
Procedure: Contractions obtained after 30 min. incubation with the test compounds (left portion of graph), and after a 60-min. wash-out (right portion of graph).
(§1) To identify compounds with enhanced L-type Ca^2+ channel blocker activity, several compounds were either purchased or synthesized, and then tested for their ability to inhibit: (1) KCl-induced contraction in isolated arteries; (2) KCl-induced Ca^2+ signaling in fura-2 loaded arteries; and (3) KCl-induced Ca^2+ signaling in fura-2 loaded PC12 cells, all using art-recognized methods established in the applicants' laboratories (Roullet, 1993, 1994, 1995, 1997; De Lima, 1999). Arteries express smooth muscle voltage-gated, L-type (Cav1.2 or α1C subunit) Ca^2+ channels, whereas PC12 cells constitutively express the neuronal voltage-gated, L-type (Cav1.3) α1D subunit (Ertel, 2000).

[2] = target: T2, neuronal voltage-gated, L-type (Cav1.3) α1D subunit Ca^2+ channel (Rattus norvegicus, UniProt P27732); assay: KCl-induced Ca^2+ signaling in fura-2 loaded PC12 cells; format: cell-based; details: for activity on neuronal L-type Ca^2+ channels compared with all-trans farnesol: non-NGF PC12 cells, fura-2, FIG. 1 / FIG. 3; for block of KCl-induced Ca^2+ signaling: PC12 cells in culture, n=3/group, FIG. 3
T2 construct: KCl-induced intracellular Ca^2+ signaling in non-NGF treated PC12 cells loaded with fura-2; endogenous in cells; host or cells: PC12 cells (non-NGF treated)
Excerpt: According to particular aspects of the present invention, the alcohol group is essential for activity. Additionally, the activity of farnesol metabolites on neuronal voltage-gated L-type Ca^2+ channels was investigated. […] The Ca^2+ channel activity is expressed as % inhibition of KCl-induced intracellular Ca^2+ signaling in non-NGF differentiated PC12 cells loaded with fura-2 (see Materials and Methods under Example 2). The assayed molecules are: FPP—farnesyl pyrophosphate; FOH—all-trans farnesol; FCHO—all-trans farnesal; and FCOOH—all-trans farnesoic acid (prepared by Dr. McDougal).
as §1
Ca^2+ channel activity is expressed as % inhibition of KCl-induced intracellular Ca^2+ signaling in non-NGF treated PC12 cells loaded with fura-2.

[3] = system: withdrawal seizures in alcohol-dependent mice; assay: Predicted anti-seizure activity; format: in vivo, mouse; design: key: la = long-acting; The ++ farnesol activity was arbitrary; details: for Predicted anti-seizure activity: long-acting (la): duration flag in brackets
WSP1 mice = assay: Acute ethanol withdrawal HIC scoring in WSP1 mice; format: in vivo, mouse
Procedure: experiments were conducted in two mouse strains: […], 1994; Crabbe & […], in preparation), but are sometimes preferred to the WSP1 mice for the screening of anti-AWS drugs, because of their lower basal level of convulsions (in the absence of alcohol). […] Immediately after the hour-7 time point HIC score (a time of maximal withdrawal in this strain), animals were injected with either 200 mg/kg farnesol (suspension in saline containing 3 g/l bovine serum albumin) or vehicle, and scored 8, 16, 24, 32, 40, 48 and 56 minutes later using a scale from 0 to 7 (Crabbe, 1991; scoring scale shown in TABLE 1). The time course was then resumed (animals were scored at hour 8, etc.).

DBA/2J mice = format: in vivo, mouse
Procedure: experiments were conducted in two mouse strains: Withdrawal Seizure Prone replicate 1 (WSP1); and DBA/2J. WSP1 mice have been selectively bred for their high sensitivity to ethanol and enhanced expression of alcohol withdrawal seizures (Kosobud, 1995; Metten, 1996). DBA/J2 mice also have pronounced alcohol withdrawal symptoms following either chronic treatment or a single injection of a hypnotic dose of alcohol (Crabbe, 1983; Metten, 1994; Crabbe & Metten, in preparation), but are sometimes preferred to the WSP1 mice for the screening of anti-AWS drugs, because of their lower basal level of convulsions (in the absence of alcohol).
DBA/2J mice (males and females; mean BW=23 g; n=44) were injected intra peritoneally (i.p.) with a loading dose of 1.5 g/kg ethanol (20% v/v saline solution) and with 68.1 mg/kg pyrazole hydrochloride, and then placed for 72 h into inhalation chambers (3-4 animals/cage) set at 5 mg ethanol/L air (Guppy, 1995; Crabbe, 1998). The animals were removed from the chambers after 24 and 48 h, and re-injected with pyrazole. The pyrazole injections are necessary to reduce mortality and heterogeneity in withdrawal reactions (Goldstein, 1972). A second group of animals matched for BW and sex (n=32), were housed under normal (‘air-breathing’) conditions and served as pyrazole-injected controls. All animals had free access to food and water and were housed with a 12 hr day-night light cycle. Upon withdrawal from the chambers (t=0), body weight was determined and a tail blood sample was collected for the determination of blood alcohol concentration (BEC, alcohol-treated animals only; Crabbe, 1998). […] Injections were made either 3 hours (GROUP A) or 6 hours (GROUP B) after withdrawal (approximately half of the animals were used in each group). These time points were chosen to precede peak withdrawal (GROUP A at 3 hours) as it begins to ascend above control levels to determine whether farnesol would prevent withdrawal, and to treat withdrawal at its peak (GROUP B at 6 hours). HICs were scored hourly until injections (0 to 3 h for GROUP A and 0 to 6 h for GROUP B). Immediately after HIC scoring at the hour-3 or hour-6 time points, the animals were injected with farnesol or vehicle, and scored 10, 20, 30 and 40 minutes later. The hourly scoring was then resumed at either 4 hours or 7 hours, and continued to the 10-hour time point.

[4] = target: T2, neuronal voltage-gated, L-type (Cav1.3) α1D subunit Ca^2+ channel; details: PC12 cells; cited from earlier work
[5] = target: T3, voltage-gated L-type Ca^2+ channels (Homo sapiens, UniProt Q13936); details: cited from earlier work
T3 construct: host or cells: arteries / vascular smooth muscle cells

[6] = target: T4, N-type Ca^2+ channel (α1B) (Homo sapiens, UniProt Q00975); details: cited from earlier work
T4 construct: host or cells: HEK cells

[7] = target: T5, P/Q-type Ca^2+ channels (α1A) (Homo sapiens, UniProt O00555); details: micromolar concentration; cited from earlier work
T5 construct: host or cells: HEK cells

[8] = target: T6, R-type Ca^2+ channels (α1E) (Homo sapiens, UniProt Q15878); details: micromolar concentration; cited from earlier work
T6 construct: host or cells: HEK cells

[9] = target: T7, cardiac L-type Ca^2+ channels (α1C) (Homo sapiens, UniProt Q13936); details: micromolar concentration; cited from earlier work
T7 construct: host or cells: HEK cells

[10] = system: pentylenetetrazole-induced seizures; details: in vivo; cited from earlier work
ADH = assay: Metabolism / substrate recognition by ADH; format: in vitro ADME
microsomal FolDH = assay: Recognition by microsomal FolDH; format: in vitro ADME

**Q.** For `COCC=C(C)CCC=C(C)CCC=C(C)C` [farnesyl methyl ether], which “activity on KCl-induced arterial contraction” value [1] is on record?
**A.** did not showed significant activity

**Q.** Which “activity on neuronal L-type Ca^2+ channels compared with all-trans farnesol” value (“activity … compared with all-trans farnesol” for short) [2] does the source give for `CC(C)=CCC/C(C)=C/CC/C(C)=C/C(=O)O` [farnesoic acid, all-trans farnesoic acid, reference compound] here?
**A.** substantially inactive

**Q.** Which “Predicted anti-seizure activity: long-acting (la)” value [3] does the source give for `CC(C)=CCC/C(C)=C/CC/C(=C\CO)C(F)(F)F` [Trifluorofarnesol, (2E,6E)-,7,11-dimethyl-3-(trifluoromethyl)dodeca-2,6,10-trien-1-ol] here?
**A.** la

**Q.** With `CC(=O)OCC=C(C)CCC=C(C)CCC=C(C)C` [farnesyl acetate] as the compound, how does the “activity on KCl-induced arterial contraction” value [1] read?
**A.** did not showed significant activity

**Q.** Which “activity … compared with all-trans farnesol” value [2] does the source give for `CC(C)=CCCC(C)=CCCC(C)=CC=O` [FCHO, all-trans farnesal, reference compound] here?
**A.** significantly less activity than FOH

**Q.** What does the source list for `CC(C)=CCC/C(C)=C/CC/C(C)=C/CO` [All-trans farnesol, (2E,6E)-3,7,11-trimethyldodeca-2,6,10-trien-1-ol]?
**A.** block of KCl-induced Ca^2+ signaling [2]: 65%; Predicted anti-seizure activity ([3]; based on effect on L-type Ca^2+ channels, CLogP and reversibility or ADH-FolDH recognition): ++; reduction in peak ethanol withdrawal (WSP1 mice; 200 mg/kg): ~56%; peak withdrawal effect (HIC score) (WSP1 mice; 200 mg/kg after hour 7, average of 24, 32 and 40 minute scores, scale 0 to 7): 2.67±0.29; time point of maximum effect (WSP1 mice; 200 mg/kg, after injection at hour 7): 32 min; effect on basal HICs in naïve WSP1 mice (WSP1 mice; 200 mg/kg, preliminary experiments): tended to reduce basal HICs; Percent seizure reduction, GROUP A (DBA/2J mice; 300 mg/kg i.p., injected 3 hours after withdrawal): 99%; Percent seizure reduction, GROUP B (DBA/2J mice; 300 mg/kg i.p., injected 6 hours after withdrawal): 78%; effect on HIC scores in ‘air-breathing’ animals (DBA/2J mice; 300 mg/kg i.p., pyrazole-injected controls): no significant effect; effect on HICs in withdrawing animals, 50 mg/kg (DBA/2J mice; at 50 mg/kg, worded "Preferably"): no effect; effect on HICs in withdrawing animals, 300 mg/kg (DBA/2J mice; dose of 300 mg/kg): suppresses almost completely; death after injections (DBA/2J mice; mouse, in vivo): No death; duration of the farnesol effect (DBA/2J mice; mouse, in vivo): approximately 1 hour; toxicity of the dose inducing complete seizure suppression (DBA/2J mice; mouse, in vivo): non toxic; activity on neuronal L-type Ca^2+ channels (literature / prior studies) [4]: inhibits; IC50 ([5]; reversible and dose-dependent, read-out: IC50, effect on arteries): ~2 µM; block of the N-type channel ([6]; at 250 nM farnesol, typical neuronal resting membrane potential): ~50%; activity on N-type Ca^2+ channels ([6]; micromolar concentration): inhibits; activity on P/Q-type Ca^2+ channels [7]: inactive; activity on R-type Ca^2+ channels [8]: inactive; activity on cardiac L-type Ca^2+ channels [9]: inhibits; prevention of pentylenetetrazole-induced seizures [10]: not prevent

**Q.** For `CC(C)=CCCC(C)=CCCC(C)=CCBr` [Farnesyl bromide], which “activity on KCl-induced arterial contraction” value [1] is on record?
**A.** did not showed significant activity

**Q.** What does the source list for `C=CC(C)(O)CCC=C(C)CCC=C(C)C` (mixture of isomers) [Nerolidol, (E)-3,7,11-trimethyldodeca-1,6,10-trien-3-ol]?
**A.** block of KCl-induced Ca^2+ signaling [2]: ~85%; substrate for ADH (ADH): not a substrate for ADH; recognition by microsomal FolDH (microsomal FolDH): not recognized by microsomal FolDH; Predicted anti-seizure activity: long-acting (la) [3]: la

**Q.** With `CC(C)=CCC/C(C)=C/CO` [geraniol, reference compound] as the compound, how does the “activity on Ca^2+ channels / smooth muscle L-type channels (literature / prior studies)” value [5] read?
**A.** inactive

**Q.** What does the source list for `CC(C)=CCC/C(C)=C/CC/C(C)=C\CO` [“Cis” farnesol, (2Z,6E)-3,7,11-trimethyldodeca-2,6,10-trien-1-ol]?
**A.** activity on KCl-induced arterial contraction [1]: significantly more active; activity on neuronal L-type Ca^2+ channels compared with all-trans farnesol [2]: significantly more active; catalytic efficiency of ADH, lower than toward all-trans farnesol (ADH): approximately 10 fold

**Q.** For `CC(C)=CCC/C(C)=C/CC/C(C)=C/CC/C(C)=C/CO` [geranylgeraniol, reference compound], which “activity on Ca^2+ channels / smooth muscle L-type channels (literature / prior studies)” value [5] is on record?
**A.** inactive

**Q.** Which “activity … compared with all-trans farnesol” value [2] does the source give for `CC(C)=CCC/C(C)=C/CC/C(C)=C/COP(=O)(O)OP(=O)(O)O` [farnesyl-PP, farnesyl pyrophosphate, reference compound] here?
**A.** substantially inactive

**Q.** Which “activity on KCl-induced arterial contraction” value [1] does the source give for `CC(=O)CCC=C(C)CCC=C(C)CCC=C(C)C` [farnesylacetone] here?
**A.** did not showed significant activity
